Read-outs that look alike come from different tables or passages of the source.
Experiment: Tissue distribution of Compound A in mice with mammary C/16 adenocarcinomas (first method: liver, heart, kidney, lung, spleen, tumor)
Format: in vivo, C3H/HeN female mice
Conditions: for Kp at 1 h / Kp at 14 h / half-life / Tmax / Kp at 0.033 h / Kp at 0.083 h / Kp at 0.25 h / Kp at 4 h / Kp at 0.5 h / Kp at 24 h / Kp at 0.75 h: mouse, iv; for Kp at 0.5 h: 0.50 h
Method: Mammary C/16 adenocarcinomas were implanted in C3H/HeN female mice. At least 7 days later, 4α,10β-diacetoxy-2α-benzoyloxy-5β,20-epoxy-1β-hydroxy-7β,8β-methylene-9-oxo-19-nor-11-taxen-13α-yl (2R,3S)-3-tert-butoxycarbonylamino-2-hydroxy-3-phenylpropionate ("Compound A") was administered to groups of female mice at doses of 9.5, 15.4, 24.8, 40 or 60.5 mg/kg by intravenous injection under 0.4 or 0.5 ml/injection over 15 seconds. The body weight and date of implantation were recorded for each mouse. Blood and tissue samples were taken 2, 5, 15, 30 and 45 minutes and 1, 4, 14, 24 and 48 hours, after administration. The plasma was separated from the blood samples at 4° C. and frozen immediately. The tissue and tumors were weighed and frozen immediately (-20° C.).
The plasma and tissue samples were then analyzed for the concentration of Compound A. The plasma was assayed by high pressure liquid chromatography with spectrophotometric detection. For the tissue, liver, heart, kidney, lung, spleen and tumor tissue, samples were assayed by a first method, while a second method was used for the brain tissue analyzed. In the first method, 0.2 g of tissue was combined with 2 ml of sodium phosphate buffer 0.1 M (pH:7) and homogenized. The homogenate was centrifuged and 0.5 ml of supernatant was injected into the chromatographic column. In the second method, 10 μl of standard solution was combined with 0.2 g of brain tissue. 2 ml of methanol/5% perchloric acid (50/50) were added and the mixture was homogenized. The homogenate was centrifuged and 100 μl of supernatant was injected into the chromatographic column.

[1] = kidney/plasma, 40 mg/kg, 40 μg/kg [sic], mice with tumors, single mice, read-out: Tissue/Plasma Ratio, KIDNEY
[2] = liver/plasma, 40 mg/kg, mice with tumors, single mice, read-out: Tissue/Plasma Ratio, LIVER
[3] = lung/plasma, 40 mg/kg, 40 μg/kg [sic], mice with tumors, single mice, read-out: Tissue/Plasma Ratio, LUNG
[4] = spleen/plasma, 40 mg/kg, mice with tumors, single mice, read-out: Tissue/Plasma Ratio, SPLEEN
[5] = tumor/plasma, 40 mg/kg, mice with tumors, single mice, read-out: Tissue/Plasma Ratio, TUMOR
[6] = tumor/plasma, dose 9.5, single mice, read-out: Tumor/Plasma Ratio
[7] = tumor/plasma, dose 15.4, single mice, MEAN=b373, read-out: Tumor/Plasma Ratio
[8] = tumor/plasma, dose 24.8, single mice, read-out: Tumor/Plasma Ratio
[9] = tumor/plasma, dose 40, single mice, read-out: Tumor/Plasma Ratio
[10] = tumor/plasma, dose 60.5, single mice, read-out: Tumor/Plasma Ratio

## CC(=O)O[C@H]1C(=O)[C@]23C[C@H]2C[C@H]2OC[C@@]2(OC(C)=O)[C@H]3[C@H](OC(=O)c2ccccc2)[C@]2(O)C[C@H](OC(=O)[C@H](O)[C@@H](NC(=O)OC(C)(C)C)c3ccccc3)C(C)=C1C2(C)C [Compound A, 4α,10β-diacetoxy-2α-benzoyloxy-5β,20-epoxy-1β-hydroxy-7β,8β-methylene-9-oxo-19-nor-11-taxen-13α-yl (2R,3S)-3-tert-butoxycarbonylamino-2-hydroxy-3-phenylpropionate]
[1]
  Kp at 1 h: 2.17
  Kp at 14 h: 2.56
liver, 40 mg/kg, 40 mg/kg i.v., read-out: half-life of the distribution phase, liver (converted)
  half-life: 17.4 min
liver, 40 mg/kg, read-out: t 1/2, Liver (converted)
  half-life: 186 min
liver, 40 mg/kg i.v., read-out: time of maximum concentration, liver
  Tmax: 4.98 min
[2]
  Kp at 0.033 h: 1.54
  Kp at 0.083 h: 3.07
  Kp at 0.25 h: 1.79
  Kp at 1 h: 1.71
  Kp at 4 h: 0.93
liver/plasma, 40 mg/kg, mice with tumors, single mouse, read-out: Tissue/Plasma Ratio, LIVER
  Kp at 14 h: 1.62
lung, 40 mg/kg, 40 mg/kg i.v., read-out: half-life of the distribution phase, lung (converted)
  half-life: 20.4 min
lung, 40 mg/kg, read-out: t 1/2, Lung (converted)
  half-life: 174 min
lung, 40 mg/kg i.v., read-out: time of maximum concentration, lung
  Tmax: 4.98 min
[3]
  Kp at 0.033 h: 0.33
  Kp at 0.083 h: 0.79
  Kp at 0.25 h: 0.95
  Kp at 0.5 h: 1.27
  Kp at 1 h: 1
  Kp at 4 h: 1.43
  Kp at 14 h: 0.81
spleen, 40 mg/kg, 40 mg/kg i.v., read-out: half-life of the distribution phase, spleen (converted)
  half-life: 13.8 min
spleen, 40 mg/kg, read-out: t 1/2, Spleen (converted)
  half-life: 450 min
spleen, 40 mg/kg i.v., read-out: time of maximum concentration, spleen
  Tmax: 4.98 min
[4]
  Kp at 0.033 h: 0.46
  Kp at 0.25 h: 0.85
  Kp at 0.5 h: 1.24
  Kp at 1 h: 1.1
  Kp at 4 h: 1.72
  Kp at 14 h: 2.37
tissues, 40 mg/kg, 40 mg/kg i.v., tissues other than brain, read-out: half-life in the other tissues
  half-life: 96 to 558 min
tissues, 40 mg/kg, 40 mg/kg i.v., tissues tested except tumor and brain, read-out: elimination half-life, slower phase
  half-life: 96 to 450 min
tumor, 40 mg/kg, read-out: t 1/2, Tumor (converted)
  half-life: 558 min
tumor, 40 mg/kg i.v., read-out: time of maximum concentration, tumor
  Tmax: 15 min
[5]
  Kp at 0.033 h: 0.2
  Kp at 0.083 h: 0.37
  Kp at 0.25 h: 0.58
  Kp at 0.5 h: 0.78
  Kp at 1 h: 0.95
  Kp at 4 h: 1.8
  Kp at 24 h: 2.79
[6]
  Kp at 0.033 h: 0.24
  Kp at 0.25 h: 0.51
  Kp at 0.75 h: 0.94
  Kp at 1 h: 2.02
  Kp at 4 h: 3.45
[7]
  Kp at 0.033 h: 0.23
  Kp at 0.083 h: 0.28
  Kp at 0.25 h: 0.6
  Kp at 0.5 h: 0.97
  Kp at 0.75 h: 1.75
  Kp at 1 h: 1.83
  Kp at 4 h: 1.9
[8]
  Kp at 0.033 h: 0.13
  Kp at 0.083 h: 0.28
  Kp at 0.25 h: 0.71
  Kp at 0.75 h: 1.14
  Kp at 1 h: 1.29
  Kp at 4 h: 1.61
[9]
  Kp at 0.033 h: 0.2
  Kp at 0.083 h: 0.37
  Kp at 0.25 h: 0.58
  Kp at 0.5 h: 0.78
  Kp at 1 h: 0.95
  Kp at 4 h: 1.8
  Kp at 24 h: 2.79
[10]
  Kp at 0.083 h: 0.19
  Kp at 0.25 h: 0.39
  Kp at 0.5 h: 0.62
  Kp at 4 h: 2.48
tumor/plasma, dose 60.5, single mouse, read-out: Tumor/Plasma Ratio
  Kp at 24 h: 13.3
Range of doses administered
  pharmacokinetics in mice with mammary tumors, linearity: similarly linear

From patent US6156789A, “Method for treating abnormal cell proliferation in the brain” (Rhone-Poulenc Rorer S.A., priority 1998, dated 2000)
